Where “and” joins values, the source holds several entries; their conditions need not be identical. Identical values can stand only once. Like-named read-outs stand apart in the source and are kept apart here.
Tested on: anthelmintic/nematicide-resistant C. elegans mutant strains
Assay: microbe, parasite or virus in culture
Details: for LC50: Caenorhabditis elegans; for dose response data: mev-1 (tr355)
From the text: In addition to the Caenorhabditis elegans wild-type N2 strain, this work included the following C. elegans strains: CB1003 (kynu-1(e1003) X); anthelmintic-resistant strains—CB3474 (ben-1(e1880) III), CB193 (unc-29(e193) I), HY496 (bre-1(ye4) IV), RB2119 (acr-23(ok2804) V), JD608 (avr-14(ad1302) I; avr-15(ad1051) V; glc-1 (pk54) V), NM1968 (slo-1(js379) V), RP2635 (mev-1(tr355) III); benzimidazole-resistant CRISPR strains—ECA882 (ben-1(ean64) III), ECA917 (ben-1(ean98) III), ECA1075 (ben-1(ean143) III), ECA1080 (ben-1(ean148) III). This work also featured several additional free-living nematode strains: C. briggsae strain AF16, P. pacificus strain PS312, and P. hermaphrodita strain B178. The four CRISPR-generated benzimidazole-resistant C. elegans mutants were generously provided by Prof. Erik Andersen (Johns Hopkins University); PS312 and B178 were generously provided by Prof. Peter Roy (University of Toronto); all other strains were obtained from the Caenorhabditis Genetics Center (CGC, University of Minnesota). All strains were cultured and propagated at 20 °C on NGM (nematode growth medium) agar plates seeded with E. coli OP50 (Stiernagle, 2006)[56].
Liquid development and viability assays were adapted from a previously established chemical screening protocol (Burns et al.)[24]. In brief, a saturated culture of E. coli HB101 was concentrated 2-fold in liquid NGM and 40 μL of this suspension was distributed to each well of a 96-well flat-bottom culture plate. 0.5 μL chemical solution (or DMSO alone) was added to each well (1% DMSO v/v) using either a multi-channel pipette or a pinning tool (V&P Scientific). L1 worms synchronized from an embryo preparation performed the day prior were diluted to a concentration of ~2 worms/μL in M9 buffer; 10 μL worm suspension was then added to each well. Culture plates were sealed with parafilm and placed in a plastic container lined with wet paper towels to prevent evaporation. Containers were then incubated for 6 days at 20 °C with shaking at 165 rpm. Following incubation, 300 μL M9 was added to each well to decrease the turbidity of the HB101-NGM suspension. Single images of each microplate well were then taken on a Nikon Ti Eclipse inverted microscope (Nikon NIS Elements AR). Images were processed using Python scripts to isolate worm-associated pixels from background. Scores of worm development and viability were determined as the sum of worm-associated pixels in each well. Development/viability scores for each well were divided by the development /viability scores for the corresponding DMSO controls, resulting in a relative viability value for each chemical. At least three biological replicates were performed for each dose-response experiment; relative viability values were averaged across replicates.
Supplementary Table 2. Sensitivity of anthelmintic/nematicide-resistant strains to Class A, B, and C
benzimidazole complex I inhibitors.
LC50s were estimated from fitted dose-
response curves; all dose response data are the mean of at least three biological replicates.
Supplementary Table 2. Davie et al.

[1] = read-out: C. elegans Development & Viability LC50, acr-23(ok2804)
[2] = read-out: C. elegans Development & Viability LC50, avr-14(ad1302), avr-15(ad1051), glc-1(pk54)
[3] = read-out: C. elegans Development & Viability LC50, ben-1(e1880)
[4] = read-out: C. elegans Development & Viability LC50, bre-1(ye4)
[5] = read-out: C. elegans Development & Viability LC50, mev-1(tr355)
[6] = read-out: C. elegans Development & Viability LC50, slo-1(js379)
[7] = read-out: C. elegans Development & Viability LC50, unc-29(e193)
[8] = CB3474 G104D (ben-1), 1 µM, score 0-1 relative to DMSO, values >1 set to 1
[9] = CB3474 G104D (ben-1), 2 µM, score 0-1 relative to DMSO, values >1 set to 1
[10] = CB3474 G104D (ben-1), 3.9 µM, score 0-1 relative to DMSO, values >1 set to 1
[11] = CB3474 G104D (ben-1), 15.6 µM, score 0-1 relative to DMSO, values >1 set to 1
[12] = CB3474 G104D (ben-1), 31.3 µM, score 0-1 relative to DMSO, values >1 set to 1
[13] = CB3474 G104D (ben-1), 62.5 µM, score 0-1 relative to DMSO, values >1 set to 1
[14] = ECA917 F200Y (ben-1), 1 µM, score 0-1 relative to DMSO, values >1 set to 1
[15] = ECA917 F200Y (ben-1), 2 µM, score 0-1 relative to DMSO, values >1 set to 1
[16] = ECA917 F200Y (ben-1), 3.9 µM, score 0-1 relative to DMSO, values >1 set to 1
[17] = ECA917 F200Y (ben-1), 15.6 µM, score 0-1 relative to DMSO, values >1 set to 1
[18] = ECA1075 F167Y (ben-1), 1 µM, score 0-1 relative to DMSO, values >1 set to 1
[19] = ECA1075 F167Y (ben-1), 2 µM, score 0-1 relative to DMSO, values >1 set to 1
[20] = ECA1075 F167Y (ben-1), 3.9 µM, score 0-1 relative to DMSO, values >1 set to 1
[21] = ECA1075 F167Y (ben-1), 15.6 µM, score 0-1 relative to DMSO, values >1 set to 1
[22] = ECA1080 E198A (ben-1), 1 µM, score 0-1 relative to DMSO, values >1 set to 1
[23] = ECA1080 E198A (ben-1), 2 µM, score 0-1 relative to DMSO, values >1 set to 1
[24] = ECA1080 E198A (ben-1), 3.9 µM, score 0-1 relative to DMSO, values >1 set to 1
[25] = ECA1080 E198A (ben-1), 15.6 µM, score 0-1 relative to DMSO, values >1 set to 1
[26] = ECA1080 E198A (ben-1), 31.3 µM, score 0-1 relative to DMSO, values >1 set to 1

Cc1nc2ccccc2n1Cc1ccc(Cl)cc1 [STK697993]
LC50 [1]: 34.9 µM | LC50 [2]: 28.3 µM | LC50 [3]: 38.6 µM | LC50 [4]: 31.1 µM | LC50 [5]: 28.5 µM | LC50 [6]: 16.1 µM | LC50 [7]: 22.9 µM | dose response data (concentration step 1 of 13 (c108)): 0.989 and 1.000 | dose response data (concentration step 4 of 13 (c111)): 0.994 and 1.000

CC(C)Cc1ccc(C(C)c2nc3ccccc3n2C)cc1 (stereo not shown) [NPD8790]
LC50 [1]: > 1000 µM | LC50 [2]: > 1000 µM | LC50 [3]: > 1000 µM | LC50 [4]: > 1000 µM | LC50 [5]: > 1000 µM | LC50 [6]: 177 µM | LC50 [7]: > 1000 µM

COC(=O)Nc1nc2ccc(C(=O)c3ccccc3)cc2[nH]1 [mebendazole, reference compound]
C. elegans L1 relative development & viability [8]: 1.000 | C. elegans L1 relative development & viability [9]: 1.000 | C. elegans L1 relative development & viability [10]: 1.000 | C. elegans L1 relative development & viability [11]: 1.000 | C. elegans L1 relative development & viability [12]: 1.000 | C. elegans L1 relative development & viability [13]: 1.000 | C. elegans L1 relative development & viability (CB3474 G104D (ben-1), 125 µM, […]): 0.918 | C. elegans L1 relative development & viability (CB3474 G104D (ben-1), 250 µM, […]): 0.816 | C. elegans L1 relative development & viability [14]: 1.000 | C. elegans L1 relative development & viability [15]: 1.000 | C. elegans L1 relative development & viability [16]: 1.000 | C. elegans L1 relative development & viability [17]: 1.000 | C. elegans L1 relative development & viability (ECA917 F200Y (ben-1), 31.3 µM, […]): 0.958 | C. elegans L1 relative development & viability (ECA917 F200Y (ben-1), 62.5 µM, […]): 0.687 | C. elegans L1 relative development & viability (ECA917 F200Y (ben-1), 125 µM, […]): 0.515 | C. elegans L1 relative development & viability (ECA917 F200Y (ben-1), 250 µM, […]): 0.575 | C. elegans L1 relative development & viability [18]: 1.000 | C. elegans L1 relative development & viability [19]: 1.000 | C. elegans L1 relative development & viability [20]: 1.000 | C. elegans L1 relative development & viability [21]: 1.000 | C. elegans L1 relative development & viability (ECA1075 F167Y (ben-1), 31.3 µM, […]): 0.936 | C. elegans L1 relative development & viability (ECA1075 F167Y (ben-1), 62.5 µM, […]): 0.436 | C. elegans L1 relative development & viability (ECA1075 F167Y (ben-1), 125 µM, […]): 0.502 | C. elegans L1 relative development & viability (ECA1075 F167Y (ben-1), 250 µM, […]): 0.324 | C. elegans L1 relative development & viability [22]: 1.000 | C. elegans L1 relative development & viability [23]: 1.000 | C. elegans L1 relative development & viability [24]: 1.000 | C. elegans L1 relative development & viability [25]: 1.000 | C. elegans L1 relative development & viability [26]: 1.000 | C. elegans L1 relative development & viability (ECA1080 E198A (ben-1), 62.5 µM, […]): 0.746 | C. elegans L1 relative development & viability (ECA1080 E198A (ben-1), 125 µM, […]): 0.386 | C. elegans L1 relative development & viability (ECA1080 E198A (ben-1), 250 µM, […]): 0.470

C=C(C)[C@H]1Cc2c(ccc3c2O[C@@H]2COc4cc(OC)c(OC)cc4[C@@H]2C3=O)O1 [Rotenone, reference compound]
LC50 [1]: 2.1 µM | LC50 [2]: 1.4 µM | LC50 [3]: 3.4 µM | LC50 [4]: 3.5 µM | LC50 [5]: 3.2 µM | LC50 [6]: 1 µM | LC50 [7]: 1.5 µM

c1ccc2[nH]c(-c3cscn3)nc2c1 [Thiabendazole]
C. elegans L1 relative development & viability [8]: 1.000 | C. elegans L1 relative development & viability [9]: 1.000 | C. elegans L1 relative development & viability [10]: 1.000 | C. elegans L1 relative development & viability [11]: 1.000 | C. elegans L1 relative development & viability [12]: 1.000 | C. elegans L1 relative development & viability [13]: 1.000 | C. elegans L1 relative development & viability (CB3474 G104D (ben-1), 125 µM, score 0-1 relative to DMSO, values >1 set to 1): 1.000 | C. elegans L1 relative development & viability (CB3474 G104D (ben-1), 250 µM, score 0-1 relative to DMSO, values >1 set to 1): 1.000 | C. elegans L1 relative development & viability (CB3474 G104D (ben-1), 500 µM, […]): 0.035 | C. elegans L1 relative development & viability [14]: 1.000 | C. elegans L1 relative development & viability [15]: 1.000 | C. elegans L1 relative development & viability [16]: 1.000 | C. elegans L1 relative development & viability [17]: 1.000 | C. elegans L1 relative development & viability (ECA917 F200Y (ben-1), 31.3 µM, score 0-1 relative to DMSO, values >1 set to 1): 1.000 | C. elegans L1 relative development & viability (ECA917 F200Y (ben-1), 62.5 µM, score 0-1 relative to DMSO, values >1 set to 1): 1.000 | C. elegans L1 relative development & viability (ECA917 F200Y (ben-1), 125 µM, score 0-1 relative to DMSO, values >1 set to 1): 1.000 | C. elegans L1 relative development & viability (ECA917 F200Y (ben-1), 250 µM, score 0-1 relative to DMSO, values >1 set to 1): 1.000 | C. elegans L1 relative development & viability (ECA917 F200Y (ben-1), 500 µM, […]): 0.056 | C. elegans L1 relative development & viability [18]: 1.000 | C. elegans L1 relative development & viability [19]: 1.000 | C. elegans L1 relative development & viability [20]: 1.000 | C. elegans L1 relative development & viability [21]: 1.000 | C. elegans L1 relative development & viability (ECA1075 F167Y (ben-1), 31.3 µM, score 0-1 relative to DMSO, values >1 set to 1): 1.000 | C. elegans L1 relative development & viability (ECA1075 F167Y (ben-1), 62.5 µM, score 0-1 relative to DMSO, values >1 set to 1): 1.000 | C. elegans L1 relative development & viability (ECA1075 F167Y (ben-1), 125 µM, score 0-1 relative to DMSO, values >1 set to 1): 1.000 | C. elegans L1 relative development & viability (ECA1075 F167Y (ben-1), 250 µM, score 0-1 relative to DMSO, values >1 set to 1): 1.000 | C. elegans L1 relative development & viability (ECA1075 F167Y (ben-1), 500 µM, […]): 0.028 | C. elegans L1 relative development & viability [22]: 1.000 | C. elegans L1 relative development & viability [23]: 1.000 | C. elegans L1 relative development & viability [24]: 1.000 | C. elegans L1 relative development & viability [25]: 1.000 | C. elegans L1 relative development & viability [26]: 1.000 | C. elegans L1 relative development & viability (ECA1080 E198A (ben-1), 62.5 µM, score 0-1 relative to DMSO, values >1 set to 1): 1.000 | C. elegans L1 relative development & viability (ECA1080 E198A (ben-1), 125 µM, score 0-1 relative to DMSO, values >1 set to 1): 1.000 | C. elegans L1 relative development & viability (ECA1080 E198A (ben-1), 250 µM, score 0-1 relative to DMSO, values >1 set to 1): 1.000 | C. elegans L1 relative development & viability (ECA1080 E198A (ben-1), 500 µM, […]): 0.041
